Reference: patent US20240239790A1, “7-Morpholino-1,6-Naphthyridin-5-yl Derivatives and Pharmaceutical Compositions Thereof Useful as DNA-PK Inhibitor” (adMare Therapeutics Society, priority 2021, published 2024)
Like-named read-outs stand apart in the source and are kept apart here.

Key:
DNA-PK = target: T1, DNA-PK (Homo sapiens, UniProt P78527); test: DNA-PK Assay for Biochemical Enzymatic Inhibition (ADP Glo Kinase assay); details: DNA-PK enzyme
T1 construct: purchased Invitrogen PR9107A
How it was run: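 Human DNA-PK (25 ng) preincubated 15 min with compounds (ten three-fold dilutions) in HEPES pH 7.5, MgCl2, KCl, calf thymus DNA buffer, then substrate 434.4 μM and ATP 64.4 μM (final) for 60 min at room temperature. ADP-Glo luminescence; percent inhibition fitted by four-parameter regression for IC50.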

[1] = target: T2, DNA-PK phosphorylation at Serine 2056 (Homo sapiens, UniProt P78527); test: Cellular Assay for Inhibition of DNA-PK Phosphorylation at Serine 2056 in FaDu cells (sandwich ELISA, neocarzinostatin); format: cell-based; details: pSer2056 DNA-PK
T2 construct: FaDu cells were purchased from ATCC; host or cells: FaDu
How it was run: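 FaDu cells pre-treated with compound (0.3% DMSO) for 1 h, then neocarzinostatin 1 μg/mL final added for 2 h to induce DSBs. Protein-normalised lysates read by sandwich ELISA for total and pSer2056 DNA-PK; % inhibition normalised between DMSO and NCS controls, IC50 from variable-slope log(inhibitor) fit.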

[2] = tested on: pDNA-PK induction in HCT116 tumour spheroids; test: Multicellular tumour spheroid + radiation, pDNA-PK (ser2056) inhibition, immunohistochemical endpoint, HCT116; format: cell-based; details: Homo sapiens, 20 Gy, 20% O2
How it was run: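 HCT116 spheroids (~0.5 mm) in MEM/10% FBS, 20% O2, 37° C., pre-incubated 1 h with compound (10 or 5 μM down to 3.5 nM), irradiated 20 Gy, then 2 h further with compound. Cryosections immunostained for pDNA-PK ser2056; EC50 is concentration halving radiation-induced pDNA-PK.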

[3] = Hepatocyte Stability Assay, mouse hepatocytes; format: in vitro ADME
Protocol: (§1) Cryopreserved mouse hepatocytes were obtained from a pool of 10 or more male CD-1 mice. Cryopreserved human hepatocytes were obtained from a pool of 10 or more donors of mixed gender. Final hepatocyte density was 0.7 million viable cells per mL and test compound concentration was 1 uM with a maximum of 0.01% DMSO. Cryopreserved hepatocytes were thawed, washed, and resuspended in Krebs-Heinslet buffer (pH 7.3). The reaction was initiated by adding the test compound into cell suspension and incubated for 0, […], 1, 1.5, and 2 h, respectively, at 37° C./5% C02. The reaction was stopped by adding acetonitrile into the incubation mixture. Samples were then mixed, transferred completely to another 96-well plate, and centrifuged. Supernatants were used for HPLC-MS/MS analysis. […] Peak areas corresponding to the test compound were recorded.

[4] = Hepatocyte Stability Assay, human hepatocytes; format: in vitro ADME
Protocol: as §1

[5] = Microsomal Stability Assay, mouse liver microsomes; format: in vitro ADME; details: for microsomal CLint at 0.1 uM: male, CD-1, pH 7.4
Protocol: (§2) Samples were then mixed and centrifuged. Supernatants were used for HPLC-MS/MS analysis. […] Peak areas corresponding to the test compound were recorded.

[6] = Microsomal Stability Assay, human liver microsomes; format: in vitro ADME; details: for microsomal CLint at 0.1 uM: both sexes, pH 7.4
Protocol: as §2

[7] = neocarzinostatin 1 μg/mL, Table 1
[8] = HCT-116, 2 hours following radiation, Example 9 Study 2, read-out: Spheroid Cell line: HCT116 Immunohistochemical endpoint pDNA-PK inhibition EC50
[9] = HCT-116, 2 h, spheroids, Example 8, read-out: Cell line: HCT116 Immunohistochemical endpoint pDNA-PK inhibition EC50
[10] = HCT-116, Spheroid, Cell Line: HCT115 (so in the source), 2 hours following radiation, Example 7, read-out: EC50, Immunohistochemical endpoint, pDNA-PK inhibition
[11] = mouse liver microsomes 0.1 mg/mL, 0.1 uM compound
[12] = mouse liver microsomes, Example 11
[13] = human liver microsomes, Example 11

O=C(COc1cnc(N[C@H]2CC[C@@H](Oc3nc(N4CCOCC4)cc4ncccc34)CC2)nc1)N1CC(F)C1 [Compound 76, 1-(3-Fluoroazetidin-1-yl)-2-((2-(((1s,4s)-4-((7-morpholino-1,6-naphthyridin-5-yl)oxy)cyclohexyl)amino)pyrimidin-5-yl)oxy)ethan-1-one]
IC50 (DNA-PK; Table 1): < 0.0005 µM
IC50 [1, 7]: 0.1 to 1 µM
EC50 [2, 8]: 1 to 10 µM
hepatocyte CLint at 1 uM ([3]; male, CD-1, cryopreserved hepatocytes, pH 7.3, mouse hepatocytes 0.7 million cells per mL, 1 uM compound): > 8.2 µL/min/1e6 cells
Hepatocyte Stability Mouse % rem. 120 min ([3]; mouse hepatocytes, 120 min): F (% remaining = 25-50%)
hepatocyte CLint at 1 uM ([4]; both sexes, cryopreserved hepatocytes, pH 7.3, human hepatocytes 0.7 million cells per mL, 1 uM compound): < 8.2 µL/min/1e6 cells
Hepatocyte Stability Human % rem. 120 min ([4]; human hepatocytes, 120 min): G (% remaining = 50-75%)

CONC(=O)c1cnc2cc(N3CCOCC3)nc(O[C@H]3CC[C@@H](n4ccnc4)CC3)c2c1 [Compound 171, 5-(((1s,4s)-4-(1H-imidazol-1-yl)cyclohexyl)oxy)-N-methoxy-7-morpholino-1,6-naphthyridine-3-carboxamide]
IC50 (DNA-PK; Table 1): 0.001 to 0.01 µM
IC50 [1, 7]: 1 to 10 µM
EC50 [2, 9]: 1 to 10 µM
EC50 [2, 8]: 1 to 10 µM
EC50 [2, 10]: 1 to 10 µM
microsomal CLint at 0.1 uM [5, 11]: < 116 µL/min/mg
Microsomal Stability Mouse % rem. 60 min ([5]; mouse liver microsomes): G (% remaining = 50-75%)

NC(=O)c1cnc2cc(N3CCOCC3)nc(O[C@H]3CC[C@@H](n4ccnc4)CC3)c2c1 [Compound 166, 5-(((1s,4s)-4-(1H-imidazol-1-yl)cyclohexyl)oxy)-7-morpholino-1,6-naphthyridine-3-carboxamide]
IC50 (DNA-PK; Table 1): 0.001 to 0.01 µM
IC50 [1, 7]: 10 to 30 µM
EC50 [2, 9]: 10 to 100 µM
EC50 [2, 8]: 10 to 100 µM
EC50 [2, 10]: 10 to 100 µM
microsomal CLint at 0.1 uM [5, 11]: > 116 µL/min/mg
Microsomal Stability Mouse % rem. 60 min ([5]; mouse liver microsomes): E (% remaining = 0-25%)

CC(=O)NC(=O)c1cnc2cc(N3CCOCC3)nc(O[C@H]3CC[C@@H](n4ccnc4)CC3)c2c1 [Compound 167, 5-(((1s,4s)-4-(1H-imidazol-1-yl)cyclohexyl)oxy)-N-acetyl-7-morpholino-1,6-naphthyridine-3-carboxamide]
IC50 (DNA-PK; Table 1): 0.001 to 0.01 µM
IC50 [1, 7]: 0.1 to 1 µM
EC50 [2, 9]: 10 to 100 µM
EC50 [2, 8]: 10 to 100 µM
EC50 [2, 10]: 10 to 100 µM
microsomal CLint at 0.1 uM [5, 11]: > 116 µL/min/mg
Microsomal Stability Mouse % rem. 60 min ([5]; mouse liver microsomes): E (% remaining = 0-25%)

CON(C)C(=O)COc1cnc(N[C@H]2CC[C@@H](Oc3nc(N4CCOCC4)cc4ncccc34)CC2)nc1 [Compound 58, N-Methoxy-N-methyl-2-((2-(((1s,4s)-4-((7-morpholino-1,6-naphthyridin-5-yl)oxy)cyclohexyl)amino)pyrimidin-5-yl)oxy)acetamide]
IC50 (DNA-PK; Table 1): < 0.0005 µM
IC50 [1, 7]: 0.1 to 1 µM
EC50 [2, 8]: 0.5 to 1 µM
EC50 [2, 10]: 0.5 to 1 µM
microsomal CLint at 0.1 uM [5, 11]: > 116 µL/min/mg
Microsomal Stability Mouse % rem. 60 min ([5]; mouse liver microsomes): E (% remaining = 0-25%)

CN(C)C(=O)COc1ccc(N[C@H]2CC[C@@H](Oc3nc(N4CCOCC4)cc4ncccc34)CC2)nc1 [Compound 55, N,N-dimethyl-2-((6-(((1s,4s)-4-((7-morpholino-1,6-naphthyridin-5-yl)oxy)cyclohexyl)amino)pyridin-3-yl)oxy)acetamide]
IC50 (DNA-PK; Table 1): < 0.0005 µM
IC50 [1, 7]: 0.1 to 1 µM
microsomal CLint at 0.1 uM [5, 11]: > 116 µL/min/mg
Microsomal Stability Mouse % rem. 60 min ([5]; mouse liver microsomes): E (% remaining = 0-25%)
microsomal CLint at 0.1 uM ([6]; human liver microsomes 0.1 mg/mL, 0.1 uM compound): > 116 µL/min/mg
Microsomal Stability Human % rem. 60 min ([6]; human liver microsomes): F (% remaining = 25-50%)

CN(C)C(=O)COc1cnc(N[C@H]2CC[C@@H](Oc3nc(N4CCOCC4)cc4ncc(N)cc34)CC2)nc1 [LFA111, 2-[2-[[4-[(3-Amino-7-morpholino-1,6-naphthyridin-5-yl)oxy]cyclohexyl]amino]pyrimidin-5-yl]oxy-N,N-dimethyl-acetamide]
IC50 (DNA-PK; Table 2): 0.0005 to 0.001 µM
IC50 ([1]; Table 2): 0.1 to 1 µM
microsomal CLint at 0.1 uM [5, 12]: < 116 µL/min/mg
Microsomal Stability Mouse % rem. 60 min [5, 12]: F (% remaining = 25-50%)
microsomal CLint at 0.1 uM [6, 13]: < 116 µL/min/mg
Microsomal Stability Human % rem. 60 min [6, 13]: G (% remaining = 50-75%)

O=C(Nc1ccccc1)N[C@H]1CC[C@@H](Oc2nc(N3CCOCC3)cc3ncccc23)CC1 [Compound 150, 1-((1s,4s)-4-((7-Morpholino-1,6-naphthyridin-5-yl)oxy)cyclohexyl)-3-phenylurea]
IC50 (DNA-PK; Table 1): 0.0005 to 0.001 µM
IC50 [1, 7]: 0.1 to 1 µM
EC50 [2, 9]: 0.5 to 1 µM
EC50 [2, 8]: 0.5 to 1 µM
EC50 [2, 10]: 0.5 to 1 µM
microsomal CLint at 0.1 uM [5, 11]: > 116 µL/min/mg
Microsomal Stability Mouse % rem. 60 min ([5]; mouse liver microsomes): E (% remaining = 0-25%)

NC(=O)N[C@H]1CC[C@@H](Oc2nc(N3CCOCC3)cc3ncccc23)CC1 [Compound 15, 1-((1s,4s)-4-((7-morpholino-1,6-naphthyridin-5-yl)oxy)cyclohexyl)urea]
IC50 (DNA-PK; Table 1): 0.001 to 0.01 µM
IC50 [1, 7]: 0.1 to 1 µM
EC50 [2, 9]: 1 to 10 µM
EC50 [2, 8]: 1 to 10 µM
EC50 [2, 10]: 1 to 10 µM
microsomal CLint at 0.1 uM [5, 11]: > 116 µL/min/mg
Microsomal Stability Mouse % rem. 60 min ([5]; mouse liver microsomes): E (% remaining = 0-25%)

CN(C)C(=O)Cn1cccc1C(=O)N[C@H]1CC[C@@H](Oc2nc(N3CCOCC3)cc3ncccc23)CC1 [Compound 146, 1-(2-(dimethylamino)-2-oxoethyl)-N-((1s,4s)-4-((7-morpholino-1,6-naphthyridin-5-yl)oxy)cyclohexyl)-1H-pyrrole-2-carboxamide]
IC50 (DNA-PK; Table 1): 0.001 to 0.01 µM
IC50 [1, 7]: 1 to 10 µM
EC50 [2, 8]: 1 to 10 µM
EC50 [2, 10]: 1 to 10 µM
microsomal CLint at 0.1 uM [5, 11]: > 116 µL/min/mg
Microsomal Stability Mouse % rem. 60 min ([5]; mouse liver microsomes): F (% remaining = 25-50%)

Cn1cc([C@H]2CC[C@@H](Oc3nc(N4CCOCC4)cc4ncc(OCCO)cc34)CC2)cn1 [Compound 5, 2-((5-(((1s,4s)-4-(1-methyl-1H-pyrazol-4-yl)cyclohexyl)oxy)-7-morpholino-1,6-naphthyridin-3-yl)oxy)ethan-1-ol]
IC50 (DNA-PK; Table 1): 0.001 to 0.01 µM
IC50 [1, 7]: 10 to 30 µM
EC50 [2, 9]: 1 to 10 µM
EC50 [2, 8]: 1 to 10 µM
EC50 [2, 10]: 1 to 10 µM
microsomal CLint at 0.1 uM [5, 11]: > 116 µL/min/mg
Microsomal Stability Mouse % rem. 60 min ([5]; mouse liver microsomes): E (% remaining = 0-25%)

NC(=O)COc1cnc(N[C@H]2CC[C@@H](Oc3nc(N4CCOCC4)cc4ncccc34)CC2)nc1 [Compound 60, 2-((2-(((1s,4s)-4-((7-Morpholino-1,6-naphthyridin-5-yl)oxy)cyclohexyl)amino)pyrimidin-5-yl)oxy)acetamide]
IC50 (DNA-PK; Table 1): < 0.0005 µM
IC50 [1, 7]: < 0.1 µM
EC50 [2, 8]: 0.01 to 0.5 µM
EC50 [2, 10]: 0.01 to 0.5 µM
microsomal CLint at 0.1 uM [5, 11]: > 116 µL/min/mg
Microsomal Stability Mouse % rem. 60 min ([5]; mouse liver microsomes): F (% remaining = 25-50%)
